Laboratory results published in PubChem BioAssay AID720689 (NMMLSC, 2013).
pEC50: −log10 of the molar value.

Test: Rab7 GTP binding inhibition, two preparations – biochemical, Rab7 wildtype, bead flow cytometry, two protein sources, mechanism study, late-stage follow-up (AID 720689)
Settings: GST-Rab7 beads, Bodipy-FL-GTP binding

SMILES	pEC50 (protein source 1)	pEC50 (protein source 2)
CC1(C)Cc2c(sc(NC(=S)NC(=O)c3cccc(N=[N+]=[N-])c3)c2C(=O)O)CO1	5.90	5.91
CC1(C)Cc2c(sc(NC(=S)NC(=O)c3ccc(N=[N+]=[N-])cc3)c2C(=O)O)CO1	6.66	6.69
